# Read-outs that look alike come from different tables or passages of the source. *1 amine or outer side, *2 acyl side, *3 side chain or, on linkers, in order; H or OH if unused. Where a SMILES comes first, the peptide text is derived from it. Bridges are numbered along the chain shown (N, C = ends). Roman numbers before positions name the chains, in order. [ ]: non-standard residue; d: D form. The star is where a group is joined. ξ: configuration not given here. X9 = C#CCOCCOCCOCCOCCC(=O)N1C[C@@H](C(=O)[*:1])[C@H](C(=O)[*:2])C1; X4 = C#CCOCCOCCOCCOCCNC(=O)CN(CC(=O)[*:1])CC(=O)[*:2]; X10 = O=C([C@@H](N[*:1])[C@H](O)CCc1ccccc1)[*:2]; Propargyl(OCH2CH2)4CO = C#CCOCCOCCOCCOCCC(=O)*; X11 = CCCCCCCC[C@@H](O)[C@H](N[*:1])C(=O)[*:2]; X1 = CCCCCC[C@@H](O)[C@H](N[*:1])C(=O)[*:2]; X3 = CCCCC[C@@H](O)[C@H](N[*:1])C(=O)[*:2]; Nle = CCCC[C@H](N)C(=O)O; ξF = NC(Cc1ccccc1)C(=O)O; Dab = NCC[C@H](N)C(=O)O; ξT = CC(O)C(N)C(=O)O; azaGly = NNC(=O)O
# What was measured:
# LPS from E. coli O111:B4 = assay: LPS binding/neutralization by Limulus Amebocyte Lysate (LAL) assay; assay type: biochemical; settings: LPS 1-10,000 ng/mL, test article 0.25-10 μM; sum of AUCs relative to maximal AUC (Table 14)
# Experimental: The LAL assay (Charles River) was used to determine the binding affinity of test articles to LPS.
# For the assay, 25 μL purified LPS from E. coli O111:[…] (Sigma) at doses ranging from 1-10,000 ng/mL were incubated with 25 μL of test article at concentrations ranging from […]. After 5 min incubation at 37° C., 50 μL of LAL reagent, which reacts with lipid A portion from LPS, was added to corresponding wells. After 15 min, absorbance at 405 nm was read on EnSpire plate reader (Perkin Elmer). The % LPS neutralization is calculated relative to a PBS control (background) and LPS control at each concentration (positive control).
# LPS neutralization=(1−(absorbance test article−PBS with LAL reagent)/(absorbance no test article−PBS with LAL reagent))×100
# To obtain a single value of LPS neutralization for each test article, the area under the curve (AUC) for dose-response of test articles from […] for each LPS concentration was calculated using Prism 7 software. The % LPS neutralization is the sum of the AUCs for each LPS concentration determined relative to the maximal AUC achievable×100.
# For the assay, 25 μL purified LPS from E. coli O111:B4 (Sigma) at doses ranging from 1-10,000 ng/mL were incubated with 25 μL of test article at concentrations ranging from 0.25-10 μM. After 5 min incubation at 37° C., 50 μL of LAL reagent, which reacts with lipid A portion from LPS, was added to corresponding wells. After 15 min, absorbance at 405 nm was read on EnSpire plate reader (Perkin Elmer). The % LPS neutralization is calculated relative to a PBS control (background) and LPS control at each concentration (positive control).
# Ec 2469 = assay type: cell-based, Escherichia coli
# Experimental: (§1) Briefly, stock solutions of all antibacterial agents were prepared fresh in appropriate solvents (i.e. PBS, pH 7.4, DMSO, DI, etc.). Stock concentrations for drug conjugates were made at 12.5× the highest final assay concentration. All were serially diluted 2-fold, 8 or 12 times in a 96-well PCR plate (VWR cat. no. 83007-374). Bacterial cell suspensions generated from Mueller-Hinton agar (MHA) plate cultures were prepared in 0.85% saline and adjusted to ˜0.1 OD600 nm. […] For the conjugates, 92 μL of each cell suspension in RPMI B were added in the same 96-well plate assay format. […] Compounds were tested against a 14-strain panel comprised of E. coli (Ec), A. baumannii (Ab), P. aeruginosa (Pa), and K. pneumoniae (Kp) that were obtained from ATCC (Ec 25922, Ec 2489, Ab 19606, Pa 27853, Pa PAO1, Kp 43816, Kp 10031), Centers for Disease Control and Prevention (Ec AR0349), BEI Resources (Ab AB5075), Micromyx LLC (Ab 8990, Kp 6951), and Belgian Coordinated Collections of Microorganisms (Pa LES431) or generated in-house (Ec 25922 64X-1). […] E. coli strain ATCC 25922 and P. aeruginosa strain LES431 were run in the presence and absence of 50% heat-inactivated fetal bovine serum (FBS; Sigma, cat. no. F4135-100 mL). Plates were mixed by shaking then incubated at 35° C. overnight (16-20 h).
# Ec 25922 = assay type: cell-based, Escherichia coli
# Experimental: as §1
# Ec 25922 64X-1 (COL^R) = assay type: cell-based, Escherichia coli; settings: media CA-MHB
# Experimental: (§2) Briefly, stock solutions of all antibacterial agents were prepared fresh in appropriate solvents (i.e. PBS, pH 7.4, DMSO, DI, etc.). Stock concentrations for drug conjugates were made at 12.5× the highest final assay concentration. All were serially diluted 2-fold, 8 or 12 times in a 96-well PCR plate (VWR cat. no. 83007-374). Bacterial cell suspensions generated from Mueller-Hinton agar (MHA) plate cultures were prepared in 0.85% saline and adjusted to ˜0.1 OD600 nm. Next, cell suspensions were diluted 1:200 in RPMI containing 5% Luria Broth (LB) to improve bacterial growth (BD Difco, cat. no. 244620) to a concentration of ˜5×10^5 CFU (colony-forming units)/mL. Due to poor solubility in Mueller-Hinton broth media, drug conjugates were evaluated in RPMI 1640 medium (+) L-glutamine, (+) sodium bicarbonate, pH 7.4 (“RPMI B”; Gibco, cat. no. 11875-085) as has been described as a more physiologically-relevant media for susceptibility testing of antibacterial compounds (1). For the conjugates, 92 μL of each cell suspension in RPMI B were added in the same 96-well plate assay format. […] Compounds were tested against a 14-strain panel comprised of E. coli (Ec), A. baumannii (Ab), P. aeruginosa (Pa), and K. pneumoniae (Kp) that were obtained from ATCC (Ec 25922, Ec 2489, Ab 19606, Pa 27853, Pa PAO1, Kp 43816, Kp 10031), Centers for Disease Control and Prevention (Ec AR0349), BEI Resources (Ab AB5075), Micromyx LLC (Ab 8990, Kp 6951), and Belgian Coordinated Collections of Microorganisms (Pa LES431) or generated in-house (Ec 25922 64X-1). […] E. coli strain ATCC 25922 and P. aeruginosa strain LES431 were run in the presence and absence of 50% heat-inactivated fetal bovine serum (FBS; Sigma, cat. no. F4135-100 mL). Plates were mixed by shaking then incubated at 35° C. overnight (16-20 h).
# Ec AR0349 (mcr-1, COL^R) = assay type: cell-based, Escherichia coli; settings: media CA-MHB
# Experimental: as §2
# Ab 19606 (COLhet^R) = assay type: cell-based, Acinetobacter baumannii; settings: media CA-MHB
# Experimental: as §2
# Ab 8990 (COL^R) = assay type: cell-based, Acinetobacter baumannii
# Experimental: as §1
# Ab AB5075 = assay type: cell-based, Acinetobacter baumannii
# Experimental: as §1
# Pa 27853 = assay type: cell-based, Pseudomonas aeruginosa
# Experimental: as §1
# Pa LES431 = assay type: cell-based, Pseudomonas aeruginosa
# Experimental: as §1
# Pa PAO1 = assay type: cell-based, Pseudomonas aeruginosa
# Experimental: as §1
# Kp 10031 = assay type: cell-based, Klebsiella pneumoniae
# Experimental: as §1
# Kp 43816 = assay type: cell-based, Klebsiella pneumoniae
# Experimental: as §1
# Kp 6951 (COL^R) = assay type: cell-based, Klebsiella pneumoniae
# Experimental: as §1
smiles,measurement,setting,value
C#CCOCCOCCOCCOCCC(=O)N[C@@H](CCCC)C(=O)N[C@@H](CCN)C(=O)N[C@H](C(=O)N[C@@H](CCN)C(=O)N[C@H]1CCNC(=O)[C@H]([C@@H](C)O)NC(=O)[C@H](CCN)NC(=O)[C@H](CCN)NC(=O)[C@H](CC(C)C)NC(=O)[C@@H](Cc2ccccc2)NC(=O)[C@H](CCN)NC1=O)[C@H](O)CCCCCC [Int-80] ({Propargyl(OCH2CH2)4CO}-[Nle][Dab][X1][Dab][Dab][Dab][dF]L[Dab][Dab]T; lactam 5-C),% LPS neutralization of TM,LPS from E. coli O111:B4,55.7%
C#CCOCCOCCOCCOCCC(=O)N[C@@H](CCN)C(=O)N[C@H](C(=O)N[C@@H](CCN)C(=O)N[C@H]1CCNC(=O)[C@H]([C@@H](C)O)NC(=O)[C@H](CCN)NC(=O)[C@H](CCN)NC(=O)[C@H](CC(C)C)NC(=O)[C@@H](Cc2ccccc2)NC(=O)[C@H](CCN)NC1=O)[C@H](O)CCc1ccccc1 [Int-83] ({Propargyl(OCH2CH2)4CO}-[Dab][X10][Dab][Dab][Dab][dF]L[Dab][Dab]T; lactam 4-C),% LPS neutralization of TM,LPS from E. coli O111:B4,30.9%
C#CCOCCOCCOCCOCCC(=O)N[C@@H](CCN)C(=O)N[C@H](C(=O)N[C@@H](CCN)C(=O)N[C@H]1CCNC(=O)[C@H]([C@@H](C)O)NC(=O)[C@H](CCN)NC(=O)[C@H](CCN)NC(=O)[C@H](CC(C)C)NC(=O)[C@@H](Cc2ccccc2)NC(=O)[C@H](CCN)NC1=O)[C@H](O)CCCCCCCC [Int-84] ({Propargyl(OCH2CH2)4CO}-[Dab][X11][Dab][Dab][Dab][dF]L[Dab][Dab]T; lactam 4-C),% LPS neutralization of TM,LPS from E. coli O111:B4,53.7%
"C#CCOCCOCCOCCOCCC(=O)N1C[C@@H](C(=O)N[C@@H](CCCC)C(=O)N[C@@H](CCN)C(=O)N[C@H](C(=O)NNC(=O)N[C@H]2CCNC(=O)[C@H]([C@@H](C)O)NC(=O)[C@H](CCN)NC(=O)[C@H](CCN)NC(=O)[C@H](CC(C)C)NC(=O)C(Cc3ccccc3)NC(=O)[C@H](CCN)NC2=O)[C@@H](C)O)[C@H](C(=O)N[C@@H](CCCC)C(=O)N[C@@H](CCN)C(=O)N[C@H](C(=O)NNC(=O)N[C@H]2CCNC(=O)C(C(C)O)NC(=O)[C@H](CCN)NC(=O)[C@H](CCN)NC(=O)[C@H](CC(C)C)NC(=O)[C@@H](Cc3ccccc3)NC(=O)[C@H](CCN)NC2=O)[C@@H](C)O)C1 (stereo partly shown) [Int-107] (I: [Nle][Dab]T[azaGly][Dab][Dab][dF]L[Dab][Dab][ξT] / II: [Nle][Dab]T[azaGly][Dab][Dab][ξF]L[Dab][Dab]T; lactam I:5-I:C, II:5-II:C; linker I:N-II:N via X9)",MIC,"Ec 2469; Ec 2469, media CA-MHB",2 µg/mL
same,MIC,"Ec 25922; Ec 25922 + FBS (50%, heat-inactivated), media CA-MHB",0.5 µg/mL
same,MIC,"Ec 25922; Ec 25922, media CA-MHB",2 µg/mL
same,MIC,Ec 25922 64X-1 (COL^R),4 µg/mL
same,MIC,"Ec AR0349 (mcr-1, COL^R)",2 µg/mL
same,MIC,Ab 19606 (COLhet^R),2 µg/mL
same,MIC,"Ab 8990 (COL^R); Ab 8990 (COL^R), media CA-MHB",>128 µg/mL
same,MIC,"Ab AB5075; Ab AB5075, media CA-MHB",2 µg/mL
same,MIC,"Pa 27853; Pa 27853, media CA-MHB",2 µg/mL
same,MIC,"Pa LES431; Pa LES431 + FBS (50%, heat-inactivated), media CA-MHB",8 µg/mL
same,MIC,"Pa LES431; Pa LES431, media CA-MHB",2 µg/mL
same,MIC,"Pa PAO1; Pa PAO1, media CA-MHB",2 µg/mL
same,MIC,"Kp 10031; Kp 10031, media CA-MHB",2 µg/mL
same,MIC,"Kp 43816; Kp 43816, media CA-MHB",2 µg/mL
same,MIC,"Kp 6951 (COL^R); Kp 6951 (COL^R), media CA-MHB",16 µg/mL
"C#CCOCCOCCOCCOCCNC(=O)CN(CC(=O)N[C@@H](CCCC)C(=O)N[C@@H](CCN)C(=O)N[C@H](C(=O)NNC(=O)N[C@H]1CCNC(=O)[C@H]([C@@H](C)O)NC(=O)[C@H](CCN)NC(=O)[C@H](CCN)NC(=O)[C@H](CC(C)C)NC(=O)[C@@H](Cc2ccccc2)NC(=O)[C@H](CCN)NC1=O)[C@H](O)CCCCC)CC(=O)N[C@@H](CCCC)C(=O)N[C@@H](CCN)C(=O)N[C@H](C(=O)NNC(=O)N[C@H]1CCNC(=O)[C@H]([C@@H](C)O)NC(=O)[C@H](CCN)NC(=O)[C@H](CCN)NC(=O)[C@H](CC(C)C)NC(=O)[C@@H](Cc2ccccc2)NC(=O)[C@H](CCN)NC1=O)[C@H](O)CCCCC [Int-111] (I: [Nle][Dab][X3][azaGly][Dab][Dab][dF]L[Dab][Dab]T / II: [Nle][Dab][X3][azaGly][Dab][Dab][dF]L[Dab][Dab]T; lactam I:5-I:C, II:5-II:C; linker I:N-II:N via X4)",MIC,Ec 2469,4 µg/mL
same,MIC,Ec 25922,4 µg/mL
same,MIC,Ec 25922 64X-1 (COL^R),4 µg/mL
same,MIC,"Ec AR0349 (mcr-1, COL^R)",4 µg/mL
same,MIC,Ab 19606 (COLhet^R),4 µg/mL
same,MIC,Ab 8990 (COL^R),32 µg/mL
same,MIC,Ab AB5075,4 µg/mL
same,MIC,Pa 27853,4 µg/mL
same,MIC,Pa LES431,4 µg/mL
same,MIC,Pa PAO1; PAO1,8 µg/mL
same,MIC,Kp 10031,4 µg/mL
same,MIC,Kp 43816,4 µg/mL
same,MIC,Kp 6951 (COL^R),8 µg/mL

# Reference: patent US20230165970A1, “COMPOSITIONS AND METHODS FOR THE TREATMENT OF BACTERIAL INFECTIONS” (priority 2017, published 2023)
